Test results published in patent US10537611B2, “Methods of treating lung cancer” (Five Prime Therapeutics, Inc., priority 2011, dated 2020).

Experiments:
A498 xenograft model = experiment: A498 xenograft tumor growth inhibition; assay type: in vivo, mouse; details: Renal A498; IP 15 mg/kg BIW; non-amplified; P ns
Description: (§1) Percentage tumor growth inhibition by FGFR1-ECD.339-Fc was determined by area-under-the-curve (AUC) analysis of xenograft growth curves treated with FGFR1-ECD.339-Fc compared to albumin control. […] The difference in FGFR1-ECD.339-Fc-mediated xenograft inhibition between FGFR1 gene amplified and non-amplified lung cancer xenograft models was statistically significant (P=0.0333).
(§2) Also shown in Table 5 are the dosing schedule for FGFR1-ECD.339-Fc in a mouse xenograft model, the percent tumor growth inhibition (TGI (%)) and the statistical significance of the tumor growth inhibition (P Value), as well as whether the FGFR1 gene is amplified in the cell line.
(§3) An exemplary xenograft experiment is as follows. For Caki-1 and MSTO-211H, five million cells were implanted subcutaneously over the right flank of SCID mice (N=10 per group). […] Representative tumor growth curves are shown for a renal cancer, Caki-1, (A), and mesothelioma, MSTO-211H, (B) xenograft cancer model. […] In the MSTO-211H mesothelioma model, FGFR1-ECD.339-Fc administration reduced tumor growth (FIG. 16b) by 64% (P<0.0001).

HEC-1B xenograft model = experiment: HEC-1B xenograft tumor growth inhibition; assay type: in vivo, mouse; details: Endometrial HEC-1B; IP 15 mg/kg BIW; non-amplified; P < 0.05
Description: as §1, §2, §3

[1] = test system: panel of 35 xenograft models; experiment: Anti-tumor activity in a panel of xenograft models; assay type: in vivo, mouse; details: panel of Table 5
Excerpt: as §2, §3

[2] = test system: lung cancer cell lines with FGFR1 gene amplification; experiment: CellTiter-Glo cell number, FGFR1 gene amplified lung cancer cell lines (average); assay type: cell-based, human; details: averaged across all FBS concentrations; vs control ECD-Fc; four FGFR1 amplified lines
Description: (§4) To determine the impact of FGFR1-ECD.339-Fc on lung cancer cell lines in tissue culture, cells were plated in a Microtest™ 96-well tissue culture plate (Becton Dickenson, Franklin Lakes, N.J.) at a density of 5×10^3 cells/well in medium containing 10%, 1% or 0.1% FBS in the presence or absence of 15 μg/ml FGFR1-ECD.339-Fc (SEQ ID NO: 6) or an unrelated ECD-Fc fusion protein (as a negative control). Plates were incubated at 37° C. at 5% CO2 for 4 days and then assayed to determine the impact of FGFR1-ECD.339-Fc on cell number and proliferation.
(§5) To determine cell number the CellTiter-Glo® Luminescent Cell Viability Assay (Promega, Madison, Wis.) was employed. CellTiter-Glo® is a homogeneous method of determining the number of viable cells in culture based on quantitation of the ATP present, an indicator of metabolically active cells. In brief, CellTiter-Glo® Reagent was added to each well of the tissue culture plate at a volume equal to the volume of cell culture medium present in each well (100 μl), the contents mixed for 2 minutes on an orbital shaker to induce cell lysis and then the plate incubated for 10 minutes at room temperature. Luminescence was then determined on an EnVision™ Multilabel Plate Reader (PerkinElmer, Boston, Mass.) with a 0.2 second integration time. Results were expressed as relative light units (RLU)/well. […]

[3] = test system: lung cancer cell lines without FGFR1 gene amplification; experiment: CellTiter-Glo cell number, non-amplified lung cancer cell lines (average); assay type: cell-based, human; details: averaged across all FBS concentrations, vs control ECD-Fc
Description: as §4, §5

[4] = test system: FGF-2 induced HUVEC proliferation; experiment: FGF-2 induced HUVEC proliferation; assay type: cell-based, human; details: 10 μg/ml; 10 ng/ml FGF2; 3 days, CellTiter-Glo
Description: To determine whether FGFR1-ECD.339-Fc blocks VEGF-induced proliferation of endothelial cells, HUVEC cells (Life Technologies, Grand Island, N.Y.) were seeded at a density of 4×10^3 cells/well in basal media (Medium 200 (Life Technologies) with 2% heat inactivated FBS) and stimulated with either 10 ng/ml FGF2 (R&D Systems, Minneapolis, Minn.) or 15 ng/ml VEGF-A165 (R&D Systems, Minneapolis, Minn.) either in the presence of absence of 10 μg/ml FGFR1-ECD.339-Fc. HUVEC cell proliferation was determined 3 days post-stimulation using CellTiter-Glo® Luminescent Cell Viability Assay.

FGFR1-ECD.339-Fc: human FGFR1 extracellular domain ending at amino acid 339 fused to an Fc; SEQ ID NO: 6 (mature form), SEQ ID NO: 5 with signal peptide
TGI (%) (A498 xenograft model): 7%
TGI (%) (HEC-1B xenograft model): 30%
Responses observed (models responding / models examined) [1]: 19/35
range of inhibition in responding models [1]: 25-96%
average reduction in cell number (CellTiterGlo RLU) [2]: 46.25%
average decrease in cell number (CellTiterGlo RLU) [3]: 9.33%
FGF-2 induced HUVEC proliferation [4]: capable of blocking
